# Where “and” joins values, the source holds several entries; their conditions need not be identical. Equal entries are not always repeated.
# Experiments:
# [1] = assay type: physicochemical
# Protocol: To determine fragrance content, thermogravimetric analysis (TGA) was performed on fragrance-loaded sill microparticles. Samples were allowed to air dry for 24 hours prior to analysis. FIGS. 18D-18F depict the results of the TGA for encapsulation of three fragrances, while FIGS. 18A-18C show the individual emulsion components. A small increase in temperature causes the ethanol to volatilize rapidly, while the silk and vegetable oil only begin to degrade at temperatures of 220° C. and 300° C. respectively. The fragrances used are highly volatile and were expected to vaporize well before the silk and oil components. As shown in FIG. 18D-18F, it is difficult to distinguish the fragrance component from the ethanol, they are both released from the microparticles in the same temperature range. To estimate the fragrance content, the change in rate of weight loss during heating from 23° C. to 100° C. was taken as the transition between primarily ethanol evaporation prior to change in rate and fragrances loss subsequently.
# To address concerns with release between ethanol and the encapsulated fragrance, a 250 minute incubation at 50° C. was employed during a second set of TGA runs. This incubation was added to ensure that any free surface fragrance and ethanol would vaporize prior to further temperature ramping. After incubation the silk particles contain fragrance only if it was entrapped within the silk.
# (§1) Thermogravimetric analysis (TGA) (TA Instruments Q500) was used to measure weight changes in the microparticles. For rapid estimates of microparticle composition the TGA was heated from 23° C. to 500° C. at a rate of ˜20° C./min. To distinguish surface fragrance from encapsulated fragrance, samples were run with a ˜250 minute incubation at 50° C. prior to continued heating. For analysis of fragrance protection the TGA was held isothermal for 30 minutes every 20° C. interval from 70° C. up to 210° C. For each segment weight loss was monitored and attributed to fragrance release from the microparticles.
# [2] = Size of fragrance-loaded silk microparticles from silk/fragrance emulsions; assay type: physicochemical; settings: n = 3
# Protocol: To determine the effectiveness of encapsulation of a silk based oil-water-oil system, fragrance oils targeted for encapsulation were added to the silk/polyvinyl alcohol (PVA) aqueous phase at ratios ranging from 1:2 up to 1:8 (v:v). The ratio of silk to fragrance oils was altered prior to sonication and addition of secondary oil phase. […] Formation of fragrance-loaded silk microparticles was more challenging at ˜1% silk concentrations for any of the fragrances tested.
# The water phase was created by combining 5:1 (v:v) silk fibroin solution with 3% (w/v) PVA solution. The oil fragrance targeted for encapsulation was manually added to an aqueous phase. The stable primary O/W emulsion was sonicated (20% for 20 seconds) to disperse the oil, reduce the diameter of the oil particles and initiate β-sheet formation. The vegetable oil (sunflower oil) was added as the secondary oil phase at a 10:1 volumetric ratio with respect to the primary emulsion. The O/W/O emulsion was vortexed at high speed for 30 seconds and incubated overnight at room temperature. The microparticles were collected via centrifugation, and excess oil was removed by two successive ethanol rinses. The isolated particles were resuspended in deionized water and stored at room temperature.
# [3] = cited from earlier work
# [4] = Dissolution of untreated loaded silk films and release of load in aqueous medium; assay type: physicochemical
# Protocol: Rapid dissolution of films loaded with a dye and release of the dye from the films occur when the films are immersed in ˜37° C. buffer (FIG. 10). Dissolvable silk films loaded with an odor-releasing substance and/or flavoring substance (e.g., ˜0.5, 0.25 or 0.125 mg of adenosine per 0.2 mm^2 film) released the majority of the drug load (approx. 80%) within 15 minutes of exposure to 37° C. phosphate buffered saline (PBS) (Data not shown).
# [5] = TGA with stepwise isothermal segments, fragrance protection by PEO/silk coatings; assay type: physicochemical; settings: limonene containing microparticles
# Text: It has been previously discussed that hydrated barriers can alter the rate of compound release from aqueous silk, hyaluronic acid, gelatin, and alginate constructs (Guziewicz et al., 2011; Elia et al., 2011; Omi et al., 1991; Sriamornsak et al., 2007; Chan et al., 2007; and Li et al., 2006). In combination with the hydrophobic nature of the fragrances, a protective barrier designed to maintain moisture can be desired. The coating scheme is illustrated in FIG. 27A. Each coating comprises a polyethylene oxide (PEO) layer surrounded by a silk fibroin film. Particles were coated with one, three or five coatings and a modified TGA was performed to assess fragrance retention. […] FIGS. 27B-27D depict scanning electron micrographs of these particles.
# as §1
# [6] = Interfacial tension between silk solution and limonene (pendant drop); assay type: physicochemical
# Protocol: To elucidate the interaction of silk and the fragrance oils the interfacial tension was measured. Interfacial tension between the two liquids dictates emulsion stability and ultimately microparticle size and distribution (Terjung et al., 2012). Various silk concentrations were assessed along with three silk molecular weight ranges: low, medium and high based on degumming times of ˜60, ˜30 and ˜10 minutes respectively. […] Interfacial tension drops when the molecular weight of the silk protein is decreased. This is in agreement with other studies that show a dependence of surface tension on molecular weight and molecular chain branching (Dettre et al., 1966 and Legrand et al., 1969). […] The highest interfacial tension was 8.16+/−0.57 mN/m for the […] molecular weight silk at a concentration of about 2%. […] Hung et al. discussed that an increase in the concentration of short chain molecules can correspond to a decrease in interfacial tension in an aqueous system (Ly et al. 2004). This is a behavior indicative of emulsifiers, which traditionally serve to stabilize mixtures and generally show better stability with increase in concentration (Djakovic et al., 1987).
# Interfacial tension measurements were made using a Ramé-Hart Goniometer (Model 200) running DROPimage Standard analysis software. A silk solution drop of known volume was suspended on the tip of a needle which was submerged in the fragrant oil creating a pendent drop. The DROPimage software used the pendant drop image as well as known density values to calculate interfacial tension at the liquid-liquid interface.
# [7] = Limonene release in water from limonene/silk/PVA microparticles (TGA after soaking); assay type: physicochemical
# Protocol: FIGS. 22A-22B are data graphs showing retention/release of fragrance from the fragrance-encapsulated silk microparticles under a specified condition. The microparticles were then diluted in water and passed through 120 μm filter. The isolated microparticles were then incubated in water to determine fragrance release over time. FIG. 22A is a data graph of TGA (performed with ˜250 min 50° C. incubation, followed by ramping to 400° C. at 5° C./min) showing weight loss of fragrance-encapsulated silk microparticles over a period of time when subjected to various temperatures. […] These silk microparticles show retention across 14 days without any additional coatings. FIG. 22B is a bar graph showing percents of encapsulated limonene release in water from O/W/O PVA silk microparticles without coatings. Using the “no release” as the reference point for fragrance content, there was about 2-3% difference in mass for fragrance-encapsulated silk microparticles soaked in water. Mass loss corresponds to fragrance loss during soaking in an aqueous environment, with an increase of fragrance release after longer exposure to the aqueous environment.
# [8] = silk concentration ~3%, fragrance:silk ~1:2
# [9] = silk concentration ~5%, fragrance:silk ~1:2
compound,measurement,setting,value
vegetable oil,Temperature at which degradation begins,[1],300 °C
CCCC(C)C(=O)OCC (centres unmarked) [Applinate],Microparticle size,"[2]; silk concentration 3%, fragrance:silk ~1:4",9.53 ± 2.47 μm
same,Microparticle size,"[2]; silk concentration 3%, fragrance:silk ~1:8",9.22 ± 2.79 μm
same,Microparticle size,"[2]; silk concentration 5%, fragrance:silk ~1:4",9.64 ± 3.11 μm
same,Microparticle size,"[2]; silk concentration 5%, fragrance:silk ~1:8",9.61 ± 2.40 μm
same,Microparticle size,[2]; [8],8.49 ± 2.53 μm
same,Microparticle size,"[2]; silk concentration ~3%, fragrance:silk ~1:2, listed as applinate",8.49+/−2.53 μm and 8.49 ± 2.53 μm
same,Microparticle size,[2]; [9],8.11 ± 1.96 μm
same,Microparticle size,"[2]; silk concentration ~5%, fragrance:silk ~1:2, listed as applinate",8.11+/−1.76 μm and 8.11 ± 1.96 μm
same,Log P,[3],2.76
Nc1ncnc2c1ncn2[C@@H]1O[C@H](CO)[C@@H](O)[C@H]1O [adenosine],Drug load released,"[4]; dissolvable silk films, ~0.5, 0.25 or 0.125 mg per 0.2 mm^2 film, within 15 minutes in 37° C. PBS, data not shown",approx. 80%
O=C1/C(=C2\Nc3ccc(S(=O)(=O)[O-])cc3C2=O)Nc2ccc(S(=O)(=O)[O-])cc21.[Na+].[Na+] [indigo carmine],Time to full dissolution,[4]; untreated dye-loaded silk film immersed in ~37° C. water,about 30 minutes
C/C=C/C(=O)C1C(C)C=CCC1(C)C (centres unmarked) [Delta-Damascone],Microparticle size,[2]; [8],7.60 ± 2.71 μm
same,Microparticle size,[2]; [9],7.84 ± 1.49 μm
same,Log P,[3],3.91
C=C(C)C1CC=C(C)CC1 (centres unmarked) [Limonene],Microparticle size,[2]; [8],9.57 ± 2.70 μm
same,Microparticle size,"[2]; silk concentration ~3%, fragrance:silk ~1:2, listed as limonene",9.57+/−2.70 μm
same,Microparticle size,[2]; [9],12.40 ± 4.76 μm
same,Microparticle size,"[2]; silk concentration ~5%, fragrance:silk ~1:2, listed as limonene",12.40+/−4.96 μm
same,Loss of limonene during incubation period,"[1]; O/W/O microparticles, TGA with 250 minute incubation at 50° C.",majority of the limonene is lost
same,Limonene fraction of microparticles,"[1]; preformed PVA/silk microparticles soaked about 1 or about 24 hours in limonene oil, TGA",85-90%
same,"Weight Loss (%), Total Loss","[5]; 1 PEO/silk coating, 70-210° C. segments",8.2%
same,Weight Loss (%),"[5]; 1 PEO/silk coating, isotherm segment 70° C.",0.179%
same,Weight Loss (%),"[5]; 1 PEO/silk coating, isotherm segment 90° C.",1.024%
same,Weight Loss (%),"[5]; 1 PEO/silk coating, isotherm segment 110° C.",0.154%
same,Weight Loss (%),"[5]; 1 PEO/silk coating, isotherm segment 130° C.",0.342%
same,Weight Loss (%),"[5]; 1 PEO/silk coating, isotherm segment 150° C.",0.323%
same,Weight Loss (%),"[5]; 1 PEO/silk coating, isotherm segment 170° C.",0.367%
same,Weight Loss (%),"[5]; 1 PEO/silk coating, isotherm segment 190° C.",2.465%
same,Weight Loss (%),"[5]; 1 PEO/silk coating, isotherm segment 210° C.",3.3201%
same,"Weight Loss (%), Total Loss","[5]; 3 PEO/silk coatings, 70-210° C. segments",1.2%
same,Weight Loss (%),"[5]; 3 PEO/silk coatings, isotherm segment 70° C.",0.035%
same,Weight Loss (%),"[5]; 3 PEO/silk coatings, isotherm segment 90° C.",−0.019%
same,Weight Loss (%),"[5]; 3 PEO/silk coatings, isotherm segment 110° C.",0.091%
same,Weight Loss (%),"[5]; 3 PEO/silk coatings, isotherm segment 130° C.",−0.102%
same,Weight Loss (%),"[5]; 3 PEO/silk coatings, isotherm segment 150° C.",0.056%
same,Weight Loss (%),"[5]; 3 PEO/silk coatings, isotherm segment 170° C.",0.288%
same,Weight Loss (%),"[5]; 3 PEO/silk coatings, isotherm segment 190° C.",0.328%
same,Weight Loss (%),"[5]; 3 PEO/silk coatings, isotherm segment 210° C.",0.478%
same,"Weight Loss (%), Total Loss (fragrance retention)","[5]; 5 PEO/silk coatings, 70-210° C. segments",16.8%
same,Weight Loss (%),"[5]; 5 PEO/silk coatings, isotherm segment 70° C.",1.535%
same,Weight Loss (%),"[5]; 5 PEO/silk coatings, isotherm segment 90° C.",3.531%
same,Weight Loss (%),"[5]; 5 PEO/silk coatings, isotherm segment 110° C.",3.579%
same,Weight Loss (%),"[5]; 5 PEO/silk coatings, isotherm segment 130° C.",2.391%
same,Weight Loss (%),"[5]; 5 PEO/silk coatings, isotherm segment 150° C.",1.549%
same,Weight Loss (%),"[5]; 5 PEO/silk coatings, isotherm segment 170° C.",1.314%
same,Weight Loss (%),"[5]; 5 PEO/silk coatings, isotherm segment 190° C.",1.278%
same,Weight Loss (%),"[5]; 5 PEO/silk coatings, isotherm segment 210° C.",1.615%
same,Interfacial tension,"[6]; between silk and limonene, lowest molecular weight and highest silk concentrations",4.59+/−0.32 mN/m
same,Interfacial tension,"[6]; between silk and limonene, lowest molecular weight silk at about 2% (highest value found)",8.16+/−0.57 mN/m
same,Interfacial tension,[6]; limonene / 6% silk at 3.1 uM NaCl,1.82+/−0.39 mN/m
same,Interfacial tension,"[6]; limonene / unaltered 6% silk (30 minute degummed), n=3",4.78+/−0.28 mN/m
same,Difference in mass versus no release (fragrance loss on soaking in water),"[7]; uncoated limonene/silk/PVA O/W/O microparticles soaked in water, TGA",2-3%
same,Retention in water without additional coatings,[7]; uncoated limonene/silk/PVA microparticles incubated in water,14 days
C=CC(C)CCCC(C)(C)O (centres unmarked) [Dihydromyrcenol],Microparticle size,[2]; [9],7.71 ± 1.82 μm
same,Log P,[3],3.25

# — patent US20150164117A1, “ENCAPSULATION OF FRAGRANCE AND/OR FLAVORS IN SILK FIBROIN BIOMATERIALS” (Tufts University, priority 2012, published 2015)
